# Like-named read-outs stand apart in the source and are kept apart here.
# How the values were obtained:
# hypertensive rats = test: Arterial pressure in hypertensive rats after 8-day treatment (Table 5); assay type: in vivo, rat
# A549 cells = test: Growth/viability of A549 lung cancer cells in culture (cell count); assay type: cell-based, human; details: for tumour cell growth (number of cells, percent of untreated): 150 μM, 48 hours, A549
# Description: FIG. 3A. Cancer cells (A549) were treated with various concentrations of OHOD and MOD11 to determine whether the effect was dependent on the concentration. […] These cells were treated with different concentrations (0-400 μM) of OHOD and MOD11 and the number of cells was determined by flow cytometry.
# FIG. 3B. Cancer cells (A549) were treated with compounds indicated on the horizontal axis for 48 hours at 150 μM. Then, the cells were counted and their number and percent of untreated (control) represented on the vertical axis.
# Also, a series of α-derivatives of cis-monounsaturated fatty acids were used to investigate their effectiveness in cancer treatment. Two types of experiment were performed. Firstly, the dependency of the anti-tumour effect on concentration was investigated. To perform these experiments, human lung cancer cells (A549) were cultivated in RPMI medium, supplemented with 10% foetal bovine […], 10 mM Hepes (pH 7.4), 2 mM glutamine, 2 g/l bicarbonate, 1 g/l glucose, 100 units/ml penicillin, 0.1 mg/ml streptomycin, 0.25 μg/ml Amphotericin B, at 37° C. and in the presence of 5% CO2. In a first experimental series, these cells were treated with various concentrations (0-400 μM) of OHOD and MOD11 and the number of cells was determined by flow cytometry (FIG. 3A). […] In a second series, the anti-tumour effectiveness on A549 lung cancer cells was investigated at a single concentration (150 μM) and a time of 48 hours (FIG. 3B). […] Obviously, among the previous molecules, some lacked both modifications on the α-carbon and the double bond in cis configuration (EO, HDO, ODO) and had no therapeutic effect. […]
# [1] = Levels of cholesterol, triglycerides and glucose in rats after oral treatment; assay type: in vivo, rat
# Description: FIG. 13. The four bars, from left to right respectively, show the effect of treatments with vehicle (control, first bar), OHOD at 200 mg/kg (second bar), OHOD at 400 mg/kg (third bar) and OHOD at 600 mg/kg (fourth bar) on the cholesterol levels (group of four bars to the left), triglycerides (group of four bars in the middle) and glucose (group of four bars to the right). The treatments were oral in all cases and were maintained for 30 days. The values indicated are the average obtained in 6 animals per group.
# FIG. 14. Effect of treatment with vehicle (control) or with the fatty acids of the invention (600 mg/kg) on the levels of cholesterol, triglycerides and glucose. The values indicated are the average of the values obtained in 6 animals. Each group of three bars represents treatment with a different fatty acid with the left bar corresponding to cholesterol, the middle bar to triglycerides and the right bar to glucose.
# Metabolic diseases form a set of pathologies characterised by the accumulation or deficit of certain molecules (cholesterol, triglycerides, glucose, etc.) in the serum or tissues. These changes are the reflection of dysfunctions that are normally associated with errors in the activity of certain enzymes or in the control of these proteins. Among the most important metabolopathies are hypercholesterolemia (elevated levels of cholesterol), hypertriglyceridemia (elevated levels of triglycerides) and diabetes (elevated levels of glucose). These pathologies have high rates of incidence, morbidity and mortality, so that treatment is a first order necessity. […] For these experiments, the dose of fatty acid indicated (0, 200, 400 and 600 mg/kg) was supplied daily via the oral route. At the end of the treatment (30 days), blood was sampled from control and treated animals (n=6) and the levels of cholesterol, triglycerides and glucose were determined using standard colorimetric methods.
# (§1) In a further experiment, the effect of various molecules at a single dose (600 mg/kg) was investigated. […] In this sense, modification on the α-carbon and the double bond in cis configuration are crucial elements for producing the therapeutic effect indicated above. […] Finally, the effect of α-derivatives of cis-monounsaturated fatty acids on the prevention of obesity was investigated. For this, a model of rat obesity induced by a cafeteria diet, where the hypercaloric food increases the weight of the animals very markedly, was used. There were various experimental groups (see Table 3), each of which consisted of 6 female Wistar Kyoto rats of 250-300 g in weight. All the animals received a standard diet for 2 weeks. In addition, 2 of the groups received an oral preventative pre-treatment of vehicle and the other groups received 300 mg/kg of the fatty acids indicated below. Afterwards, one of the control groups was maintained on a standard diet (lean control) and the other was fed on a cafeteria diet (obese control). The treated animal groups were fed on the cafeteria diet. Preventative pre-treatment was maintained for all the groups. After two weeks on these diets, the lean control group had increased their body weight by an average of 16±16 g, while the obese control group had increased their body weight by an average of 43±17 g (statistically significance difference, p<0.01).
# [2] = Body weight of rats on cafeteria diet, no pre-treatment (Table 5); assay type: in vivo, rat
# Description: (§2) The weight of treated animals was statistically less than the weight of obese control rats and statistically indistinguishable from that of lean control rats.
# SF767 human tumour cells = test: Growth of SF767 tumour cells in culture; assay type: cell-based
# Description: In a second experimental series, designed to discover whether these molecules are effective in treatment of different types of tumours, the effect of OHOD at various concentrations on human cells of different types of cancer was studied. These experiments were performed as described before, except that the M220 and HT-29 cell lines were cultured in DMEM medium and the MDA-MB-231 line was incubated in Leibowitz L-15 medium supplemented with 15% foetal bovine […]. […] Where the nature of the tumour process requires, application can be topical (use on the skin of active products for the treatment of melanoma and other cutaneous abnormalities of cancerous nature), which can be considered as cosmetic treatments when attempts are made to correct aesthetic defects.
# [3] = Rat obesity induced by cafeteria diet, preventative pre-treatment (Table 3); assay type: in vivo, Wistar Kyoto rats; details: 300 mg/kg oral, after two weeks on cafeteria diet; obese control 308 ± 17, lean control 280 ± 16; * lower than obese controls, ‡ indistinguishable
# Description: as §1, §2
# [4] = arterial pressure, hypertensive rats, 8-day treatment, 400 mg/kg oral
# [5] = concentration that reduces the number of cells to half
# [6] = rats, daily dose of 600 mg/kg oral, untreated controls = 100%
# [7] = cafeteria diet for 2 weeks, 300 mg/kg daily oral, no pre-treatment
Compound,PA (control 214 mmHg) (hypertensive rats; [4]),IC50 (A549 cells; [5]),"% control CHO (cholesterol) [1, 6]","% control TG (triglycerides) [1, 6]","Body weight (g) (control = 311 g) [2, 7]",IC50 (SF767 human tumour cells; [5]),Final weight [3],"tumour cell growth (number of cells, percent of untreated) (A549 cells)",further results
"CCCCCCCC/C=C\CCCCCCC(C(C)=O)C(=O)O (stereo not drawn) [ACOD, α-Acetyl-cis-Δ9-octadecenoic]",157 mmHg,153 µM,59 % control,53 % control,301 g,179 µM,–,–,–
"CCCCCCCC/C=C\CCCCCCC(OP(=O)(OCC)OCC)C(=O)O (stereo not drawn) [DEPOD, α-diethyl-phosphatidyl-cis-Δ9-octadecenoic]",–,–,–,–,–,–,–,–,"PA (control 214 mmHg) (hypertensive rats; rat, in vivo, po, 400 mg/kg): 147 mmHg; IC50 (A549 cells): 57 µM; % control CHO (cholesterol) ([1]; rat, in vivo, po, 600 mg/kg): 58 % control; % control TG (triglycerides) ([1]; rat, in vivo, po, 600 mg/kg): 43 % control; Body weight (g) (control = 311 g) ([2]; rat, in vivo): 301 g; IC50 (SF767 human tumour cells): 99 µM"
CCCCCCCC/C=C\CCCCCCC(OC(C)=O)C(=O)OCC (stereo not drawn) [EE- ACOD],158 mmHg,185 µM,72 % control,56 % control,294 g,176 µM,–,–,–
CCCCCCCC/C=C\CCCCCCC(OP(=O)(OCC)OCC)C(=O)OCC (stereo not drawn) [EE-DEPOD],168 mmHg,77 µM,69 % control,49 % control,295 g,82 µM,–,–,–
CCCCCCCC/C=C\CCCCCCC(OC)C(=O)OCC (stereo not drawn) [EE-MOOD],154 mmHg,168 µM,64 % control,66 % control,297 g,195 µM,–,–,–
CCCCCCCCC=CCCCCCCC(O)C(=O)OCC (stereo not drawn) [EE-OHOD],161 mmHg,79 µM,62 % control,47 % control,295 g,68 µM,–,–,–
"CCCCCCCCCCCCCCCCCCCC(=O)O [EO, Eicosanoic, reference compound]",–,–,–,–,–,–,298 ± 12‡ g,did not show anti-tumour effectiveness,–
"CCCCCCCCCCCCCCCC(=O)O [HDO, Hexadecanoic, reference compound]",–,–,–,–,–,–,299 ± 15‡ g,did not show anti-tumour effectiveness,–
CCCCCCCC/C=C\CCCCCCC(OC(C)=O)C(=O)[O-].[Na+] (stereo not drawn) [Na-ACOD],166 mmHg,124 µM,49 % control,35 % control,298 g,132 µM,–,–,–
CCCCCCCC/C=C\CCCCCCC(OP(=O)(OCC)OCC)C(=O)[O-].[Na+] (stereo not drawn) [Na-DEPOD],159 mmHg,32 µM,45 % control,37 % control,298 g,104 µM,–,–,–
CCCCCCCC/C=C\CCCCCCC(OC)C(=O)[O-].[Na+] (stereo not drawn) [Na-MOOD],131 mmHg,77 µM,63 % control,68 % control,272 g,91 µM,–,–,–
"CCCCCCCC/C=C/CCCCCCCC(=O)O [OD, Trans-Octadecenoic, reference compound]",–,–,–,–,–,–,311 ± 17‡ g,did not show anti-tumour effectiveness,–
"CCCCCCCCCCCCCCCCCC(=O)O [ODO, Octadecanoic, reference compound]",–,–,–,–,–,–,301 ± 18‡ g,did not show anti-tumour effectiveness,–
"CCCCCCCCCCCCCCCCC(O)C(=O)O (stereo not drawn) [OHS, α-Hydroxy-octadecanoic, reference compound]",–,–,–,–,–,–,314 ± 11‡ g,lacked anti-tumour effectiveness,–
CCCCCCCC/C=C\CCCCCCC(OC(C)=O)C(=O)OC (stereo not drawn) [OMe- ACOD],152 mmHg,246 µM,86 % control,74 % control,296 g,214 µM,–,–,–
CCCCCCCC/C=C\CCCCCCC(OP(=O)(OCC)OCC)C(=O)OC (stereo not drawn) [OMe-DEPOD],175 mmHg,66 µM,63 % control,45 % control,293 g,43 µM,–,–,–
CCCCCCCC/C=C\CCCCCCC(OC)C(=O)OC (stereo not drawn) [OMe-MOOD],143 mmHg,149 µM,77 % control,69 % control,296 g,128 µM,–,–,–
CCCCCCCC/C=C\CCCCCCC(O)C(=O)OC (stereo not drawn) [OMe-OHOD],155 mmHg,94 µM,71 % control,64 % control,299 g,107 µM,–,–,–
"CCCCCCCC/C=C/CCCCCCC(O)C(=O)O (stereo not drawn) [tOHOD, α-Hydroxy-trans-octadecenoic, reference compound]",–,–,–,–,–,–,312 ± 19‡ g,lacked anti-tumour effectiveness,–
"Cis-Docosenoic [DE, reference compound]",–,–,–,–,–,–,305 ± 12‡ g,did not show anti-tumour effectiveness,–
"Cis-Eicosenoic [EE, reference compound]",–,–,–,–,–,–,301 ± 17‡ g,did not show anti-tumour effectiveness,–
"Trans-Hexadecenoic [HD, reference compound]",–,–,–,–,–,–,309 ± 15‡ g,did not show anti-tumour effectiveness,–

# From patent US9730906B2, “α-derivatives of cis-monounsaturated fatty acids for use as medicines” (UNIVERSITAT DE LES ILLES BALEARS, priority 2008, dated 2017)
